Settings in all cases: average where tested multiple times
The target in assay [1] is T1, BCAT2 (Homo sapiens, UniProt O15382).
T1 sequence (O15382 28-392): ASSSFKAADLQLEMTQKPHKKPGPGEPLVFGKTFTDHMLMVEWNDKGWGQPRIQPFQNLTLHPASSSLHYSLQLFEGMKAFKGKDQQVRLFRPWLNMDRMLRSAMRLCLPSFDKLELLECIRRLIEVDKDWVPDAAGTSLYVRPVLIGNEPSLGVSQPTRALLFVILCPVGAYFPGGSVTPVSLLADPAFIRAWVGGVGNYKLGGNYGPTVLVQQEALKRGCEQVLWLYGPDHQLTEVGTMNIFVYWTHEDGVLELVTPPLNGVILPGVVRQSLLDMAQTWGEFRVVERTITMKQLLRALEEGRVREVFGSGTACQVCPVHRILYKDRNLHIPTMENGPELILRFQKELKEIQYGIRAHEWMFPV
Kind of assay: BCAT2 in vitro enzyme inhibition assay (resazurin/diaphorase-coupled fluorescence). The format is biochemical. In outline: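 Coupled fluorescence readout: glutamate formed from L-leucine/α-ketoglutarate transamination drives GDH/NAD/diaphorase reduction of resazurin (Ex 540/Em 590). Human BCAT2 was first exposed 1 h at room temperature to compound, top final 100 μM in 3-fold, 10-point series; substrate reaction ran 1 h before SDS quench, in technical duplicate with DMSO max and enzyme-free min controls.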
On the technique in general: Alamar Blue is a resazurin reagent that responds to reducing activity.

Another assay deals with T2, hBCAT1 (Homo sapiens, UniProt P54687).
T2 sequence (P54687 1-386): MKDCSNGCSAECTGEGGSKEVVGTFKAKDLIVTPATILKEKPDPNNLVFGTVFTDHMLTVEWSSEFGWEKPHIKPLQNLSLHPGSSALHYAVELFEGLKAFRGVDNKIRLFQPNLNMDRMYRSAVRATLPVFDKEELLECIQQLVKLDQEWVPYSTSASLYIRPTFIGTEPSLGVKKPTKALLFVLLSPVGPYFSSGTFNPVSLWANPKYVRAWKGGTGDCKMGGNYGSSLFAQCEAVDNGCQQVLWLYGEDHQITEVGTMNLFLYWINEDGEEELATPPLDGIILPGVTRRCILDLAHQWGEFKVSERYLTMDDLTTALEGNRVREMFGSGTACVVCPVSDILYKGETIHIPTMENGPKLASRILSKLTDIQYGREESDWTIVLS
Kind of assay: BCAT1 in vitro enzyme inhibition assay (resazurin/diaphorase-coupled fluorescence). The format is biochemical. In outline: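 Ten-point, 3-fold compound series (top final 100 μM, delivered 1:50 from 50× DMSO stocks) tested against hBCAT1. Inhibition detected via diaphorase-coupled resazurin fluorescence, duplicate wells, with values from repeated runs averaged.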

The target in assay [2] is T1, BCAT2. Put plainly: BCAT2 in vitro cell inhibition using engineered A549 cells (KMV cell assay, 13C6-KMV by LC-MS/MS). Type of assay: cell-based. More on the design: The result was an engineered A549 cell line that expressed endogenous BCAT2; endogenous in cells; host or cells: A549 cells with MUT and BCAT1 knocked out by CRISPR/CAS9; key to BCAT2 Cell Inhibition: A: less than or equal to 0.100 μM; B: greater than 0.100 and less than or equal to 0.500 μM; C: greater than 0.500 and less than or equal to 1.000 μM; d: greater than 1.000 μM; E: no fit.

Experimental findings from patent US20260159512A1, “BCAT2 INHIBITORS” (AGIOS PHARMACEUTICALS, INC., priority 2021, published 2026) are described below.

Structures are written as SMILES. “And” between values parts separate entries of the source, which are not always exact repeats. Equal entries are not always repeated.

With `CC(C)(C)Cc1nc2cnc(-c3ccccn3)cc2n1[C@@H]1CCC[C@H](NC(=O)c2ncc(Cl)s2)[C@H]1O` [Example 389, 5-chloro-N-((1S,2R,3R)-2-hydroxy-3-(2-neopentyl-6-(pyridin-2-yl)-1H-imidazo[4,5-c]pyridin-1-yl)cyclohexyl)thiazole-2-carboxamide], the figures for the IC50 on BCAT2 [1], on hBCAT1 and against BCAT2 [2] were not above 0.1 µM, less than 0.5 µM and not above 0.1 µM, respectively.

On to `O=C(N[C@H]1CCC[C@@H](n2c(-n3nccn3)nc3cnc(-n4nccn4)cc32)C1)c1ncc(C(F)F)s1` [Example 67, N-((1S,3R)-3-(2,6-di(2H-1,2,3-triazol-2-yl)-1H-imidazo[4,5-c]pyridin-1-yl)cyclohexyl)-5-(difluoromethyl)thiazole-2-carboxamide], for which the IC50 – broadly, the concentration needed to halve the response being measured – against BCAT2 [1] was 0.1 to 0.5 µM; against hBCAT1, more than 5 µM; at BCAT2 [2], more than 1 µM.

Regarding `O=C(N[C@H]1CCC[C@@H](n2c(-c3ccccc3F)nc3cnc(-c4ncco4)cc32)C1)c1ccc(Br)s1` [Example 7, 5-bromo-N-((1S,3R)-3-(2-(2-fluorophenyl)-6-(oxazol-2-yl)-1H-imidazo[4,5-c]pyridin-1-yl)cyclohexyl)thiophene-2-carboxamide], the IC50 was not above 0.1 µM against BCAT2 [1], less than 0.5 µM at hBCAT1 and not above 0.1 µM against BCAT2 [2].

For the molecule `Nc1cc2c(cn1)nc(-c1ccccc1F)n2[C@@H]1C[C@@H](O)C[C@H](NC(=O)c2ncc(Cl)s2)C1` [Example 270, N-((1R,3S,5S)-3-(6-amino-2-(2-fluorophenyl)-1H-imidazo[4,5-c]pyridin-1-yl)-5-hydroxycyclohexyl)-5-chlorothiazole-2-carboxamide], the figures for the concentration for half-maximal inhibition (IC50) against BCAT2 [1], against hBCAT1 and against BCAT2 [2] were not above 0.1 µM, less than 0.5 µM and more than 1 µM, respectively.

As for `CC(C)Cc1nc2cnc(-c3ccccn3)cc2n1[C@H]1C[C@@H](NC(=O)c2ncc(Cl)s2)CN(C)C1` [Example 262, 5-chloro-N-((3R,5S)-5-(2-isobutyl-6-(pyridin-2-yl)-1H-imidazo[4,5-c]pyridin-1-yl)-1-methylpiperidin-3-yl)thiazole-2-carboxamide], the results for the IC50 against BCAT2 [1], against hBCAT1 and on BCAT2 [2] were 0.1 to 0.5 µM, more than 5 µM and more than 1 µM, respectively.

`CNC(=O)c1cc2nc(-c3ccccc3F)n(C3CCCC(NC(=O)c4ncc(Cl)s4)C3O)c2cn1` (stereo not drawn) [Example 281, 5-chloro-N-(3-(2-(2-fluorophenyl)-6-(methylcarbamoyl)-3H-imidazo[4,5-c]pyridin-3-yl)-2-hydroxycyclohexyl)thiazole-2-carboxamide]: the IC50 is not above 0.1 µM at BCAT2 [1], less than 0.5 µM against hBCAT1 and not above 0.1 µM against BCAT2 [2].

As for `Cc1coc(-c2cc3c(cn2)nc(-c2ccccc2F)n3C2CC(NC(=O)c3ncc(Cl)s3)CN(C)C2)n1` (stereo not drawn) [Example 130, 5-chloro-N-(5-(2-(2-fluorophenyl)-6-(4-methyloxazol-2-yl)-1H-imidazo[4,5-c]pyridin-1-yl)-1-methylpiperidin-3-yl)thiazole-2-carboxamide], the IC50 against BCAT2 [1] was not above 0.1 µM; on hBCAT1 it was 1 to 5 µM; at BCAT2 [2], 0.1 to 0.5 µM.

Regarding `O=C(N[C@H]1CCC[C@@H](n2c(C3COCCO3)nc3cnc(-c4nc[nH]n4)cc32)C1)c1ncc(Cl)s1` (single isomer, unassigned) [Example 176], the values for the IC50 against BCAT2 [1], at hBCAT1 and against BCAT2 [2] were 0.1 to 0.5 µM, 1 to 5 µM and more than 1 µM, respectively.

Take `O=C(N[C@H]1CCC[C@@H](n2c(-c3ncccc3F)nc3cnc(-c4cc[nH]n4)cc32)C1)c1ncc(C(F)F)s1` [Example 55, 5-(difluoromethyl)-N-((1S,3R)-3-(2-(3-fluoropyridin-2-yl)-6-(1H-pyrazol-3-yl)-1H-imidazo[4,5-c]pyridin-1-yl)cyclohexyl)thiazole-2-carboxamide]: the figures for the IC50 at BCAT2 [1], on hBCAT1 and at BCAT2 [2] were not above 0.1 µM, less than 0.5 µM and not above 0.1 µM, respectively.

`COc1cccc(-c2cc3c(cn2)nc(-c2ccccc2F)n3[C@@H]2CCC[C@H](NC(=O)c3ncc(Cl)s3)C2)n1` [Example 179, 5-chloro-N-((1S,3R)-3-(2-(2-fluorophenyl)-6-(6-methoxypyridin-2-yl)-1H-imidazo[4,5-c]pyridin-1-yl)cyclohexyl)thiazole-2-carboxamide]: the values for the IC50 at BCAT2 [1], against hBCAT1 and on BCAT2 [2] were not above 0.1 µM, less than 0.5 µM and not above 0.1 µM, respectively.

As to `O=C(N[C@H]1CCC[C@@H](n2c(-c3ccccn3)nc3cnc(-n4cncn4)cc32)C1)c1ncc(C(F)F)s1` [Example 26, 5-(difluoromethyl)-N-((1S,3R)-3-(2-(pyridin-2-yl)-6-(1H-1,2,4-triazol-1-yl)-1H-imidazo[4,5-c]pyridin-1-yl)cyclohexyl)thiazole-2-carboxamide], the IC50 is 0.1 to 0.5 µM against BCAT2 [1] and more than 5 µM against hBCAT1. In addition, at BCAT2 [2], the “BCAT2 Cell Inhibition” value is given as “E”.

For the molecule `Cc1noc(C)c1-c1nc2cnc(-n3ccnn3)cc2n1[C@@H]1CCC[C@H](NC(=O)c2ncc(C(F)F)s2)C1` [Example 48, 5-(difluoromethyl)-N-((1S,3R)-3-(2-(3,5-dimethylisoxazol-4-yl)-6-(1H-1,2,3-triazol-1-yl)-1H-imidazo[4,5-c]pyridin-1-yl)cyclohexyl)thiazole-2-carboxamide], the IC50 against BCAT2 [1] is more than 1 µM; against hBCAT1 it was more than 5 µM. Further, the “BCAT2 Cell Inhibition” value on BCAT2 [2] is “E”.

Take `O=C(N[C@H]1CCC[C@@H](n2c(-c3ncccc3F)nc3cnc(-n4ccnn4)cc32)C1)c1ccc(Br)s1` [Example 12, 5-bromo-N-((1S,3R)-3-(2-(3-fluoropyridin-2-yl)-6-(1H-1,2,3-triazol-1-yl)-1H-imidazo[4,5-c]pyridin-1-yl)cyclohexyl)thiophene-2-carboxamide]: the IC50 at BCAT2 [1] was not above 0.1 µM; against hBCAT1, less than 0.5 µM; at BCAT2 [2], 0.1 to 0.5 µM.

Turning to `N#CCc1ccccc1-c1nc2cnc(-c3nc[nH]n3)cc2n1[C@@H]1CCC[C@H](NC(=O)c2ncc(Cl)s2)C1` [Example 355, 5-chloro-N-((1S,3R)-3-(2-(2-(cyanomethyl)phenyl)-6-(1H-1,2,4-triazol-3-yl)-1H-imidazo[4,5-c]pyridin-1-yl)cyclohexyl)thiazole-2-carboxamide], the IC50 against BCAT2 [1] is not above 0.1 µM; against hBCAT1, less than 0.5 µM; against BCAT2 [2], not above 0.1 µM.

On to `O=C(N[C@H]1CCC[C@@H](n2c(-c3ccccn3)nc3cnc(-n4nccn4)cc32)C1)c1ccc(Br)s1` [Example 11, 5-bromo-N-((1S,3R)-3-(2-(pyridin-2-yl)-6-(2H-1,2,3-triazol-2-yl)-1H-imidazo[4,5-c]pyridin-1-yl)cyclohexyl)thiophene-2-carboxamide], for which the results for the IC50 at BCAT2 [1], against hBCAT1 and at BCAT2 [2] were not above 0.1 µM, less than 0.5 µM and not above 0.1 µM, respectively.

Take `O=C(N[C@H]1C[C@H](O)C[C@@H](n2c(-c3ccccc3F)nc3cnc(-n4nccn4)cc32)C1)c1ncc(C(F)F)s1` (single isomer, unassigned) [Example 108]: the results for the IC50 at BCAT2 [1], at hBCAT1 and against BCAT2 [2] were not above 0.1 µM, less than 0.5 µM and not above 0.1 µM, respectively.

As for `O=C(N[C@H]1CCC[C@@H](n2c(-c3ccccc3F)nc3cnc(-c4noc(=O)[nH]4)cc32)C1)c1ncc(Cl)s1` [Example 202, 5-chloro-N-((1S,3R)-3-(2-(2-fluorophenyl)-6-(5-oxo-4,5-dihydro-1,2,4-oxadiazol-3-yl)-1H-imidazo[4,5-c]pyridin-1-yl)cyclohexyl)thiazole-2-carboxamide], the IC50 at BCAT2 [1] is not above 0.1 µM; on hBCAT1, less than 0.5 µM; at BCAT2 [2], not above 0.1 µM.

As to `Cn1nccc1-c1nc2cnc(-n3nccn3)cc2n1[C@@H]1CCC[C@H](NC(=O)c2ncc(C(F)F)s2)C1` [Example 43, 5-(difluoromethyl)-N-((1S,3R)-3-(2-(1-methyl-1H-pyrazol-5-yl)-6-(2H-1,2,3-triazol-2-yl)-1H-imidazo[4,5-c]pyridin-1-yl)cyclohexyl)thiazole-2-carboxamide], the IC50 at BCAT2 [1] was not above 0.1 µM; against hBCAT1, more than 5 µM; on BCAT2 [2], 0.5 to 1 µM and 0.1 to 0.5 µM.
